What was measured:
[1] = system: C57BL/6 mice (recipients of Balbc/J skin grafts); assay: Mouse skin allograft survival; type: in vivo; conditions: 3, 10 and 30 mg/kg orally once a day, compared with vehicle; FIG. 3
Method: Animals: Female BALBc/J mice (6 to 7 weeks of age at start of study) (Jackson Laboratory, Bar Harbor, Me.) were housed four per cage and maintained in a humidity- (40-60%) and temperature- (68-72° F.) controlled facility on a 12 h:12 h light/dark cycle (lights on at 6:30 am) with free access to food (Harlan Teklad, Orange, Calif., Rodent Diet 8604) and water. Female C57BL/6 mice (8 to 10 weeks of age at start of study) (Jackson Laboratory, Bar Harbor, Me.) were similarly housed and maintained. Mice were allowed one week of habituation to the animal facility before testing. […]
Clinical scoring: Skin allografts were inspected and digital images recorded daily until rejection, which was defined as the first day on which more than 80% of the graft is necrotic. […] In an optional related study, on posttransplantation day 5 isolated lymphocytes from peripheral lymph nodes and spleen were counted and characterized for activation markers (e.g., T-cell activation markers) by flow cytometry. Also on day 5, grafts were removed from transplanted recipients, cut into small fragments, digested with collagenase and sedimented over Ficoll-Paque (Pharmacia Biotech, Uppsala, Sweden) to isolate graft-infiltrating lymphocytes, which were counted and characterized for activation markers (e.g., T-cell activation markers) by flow cytometry. […]

female NOD/Ltj mice = assay: Cyclophosphamide induced type I diabetes in NOD mice; type: in vivo, mouse; conditions: 30 mg/kg orally once a day from day 0 until day 25, compared with vehicle; FIG. 6
Method: Animals: Baseline blood glucose measurements were taken from 9-10 week old female NOD/Ltj mice (Jackson Laboratory, Bar Harbor, Me.) to ensure that they were normoglycemic (blood glucose is 80-120 mg/dL) prior to initiation of the experiment. Blood glucose was measured from tail bleeds using a one touch ultra kit and test strips (LifeScan, Milpitas, Calif.).
Cyclophosphamide induction of Type I diabetes: On day 0 and day 14, normoglycemic NOD mice were injected intraperitoneally with 4 mg cyclophosphamide monohydrate (200 mg/kg) dissolved in 0.9% saline. If mice were diabetic (blood glucose is >250 mg/dL) they were not given a booster dose of cyclophosphamide on day 14.
Drug Treatment: Mice were dosed orally, with vehicle or test compound, once a day from day 0 until day 25. Compounds were suspended in 0.5% methyl cellulose vehicle using a sonicator to ensure uniform suspension. Mice were weighed twice weekly and were dosed according to weight. Dosing volume was 5 mL/kg. Test compound was dosed at 30 mg/kg. Blood glucose was measured twice weekly. After dosing was completed at day 25, the mice continued to be monitored and blood glucose measurements were taken once a week for 3 weeks.

Female Lewis rats = assay: Collagen-induced arthritis in rats (ankle diameter); type: in vivo, rat; conditions: 3, 10 and 30 mg/kg p.o., q.d., day 0 through day 16, compared with vehicle; FIG. 4
Method: Female Lewis rats were used in this study. Acclimated animals were anesthetized with isoflurane and given the first collagen injection (day 0). On day 6, they were anesthetized again for the second collagen injection. Collagen was prepared by making a 4 mg/mL solution in 0.01 N acetic acid. Equal volumes of collagen and incomplete Freund's adjuvant were emulsified by hand mixing until a bead of this material held its form when placed in water. Each animal received 300 μL of the mixture each time, spread over 3 subcutaneous sites on the back.
Treatment (p.o., q.d., 5 mL/kg dosing volume) began on day 0 and continued through day 16 with vehicle or compounds given at 24 h intervals. Rats were weighed on days 0, 3, 6 and 9 through 17 and caliper measurements of the ankles taken on days 9 through 17. The 2nd enantiomer of Compound 7 (isolated after resolution of compound 7 by HPLC, with a retention time of 24 min per the conditions reported in Example 1.22) was dosed at 3, 10 and 30 mg/kg.

Female C57BL/6 mice = assay: MOG-induced EAE in mice; type: in vivo, mouse; conditions: 30 mg/kg orally once a day from day 3 until day 21, compared with vehicle; FIG. 5
Method: Animals: Female C57BL/6 mice (8 to 10 weeks of age at start of study) (Jackson Laboratory, Bar Harbor, Me.) were housed four per cage and maintained in a humidity- (40-60%) and temperature- (68-72° F.) controlled facility on a 12 h:12 h light/dark cycle (lights on at 6:30 am) with free access to food (Harlan Teklad, Orange, Calif., Rodent Diet 8604) and water. Mice were allowed one week of habituation to the animal facility before testing.
Induction of EAE: Mice were immunized subcutaneously, 50 μL per hind flank, with a total of 100 μg MOG35-55peptide emulsified 1:1 with Complete Freund's adjuvant containing 4 mg/ml heat-killed Mycobacterium tuberculosis. Mice also received 200 ng pertussis toxin intraperitoneally on the day of immunization and 48 h later.
Clinical scoring: Severity of disease symptoms was scored as follows (in increasing order of severity): 0=normal; 1=limp tail OR hind limb weakness; 2=limp tail AND limb weakness/weakness of 2 or more limbs; 3=severe limb weakness or single limb paralysis; 4=paralysis of 2 or more limbs; 5=death.
Drug treatment: Mice were dosed orally, with vehicle or test compound, once a day from day 3 until day 21. Dosing volume is 5 ml/kg. Test compound was dosed at 30 mg/kg. […] Mice were monitored daily from day 7 onward for disease symptoms. After the last dose on day 21, disease progression was monitored daily for 2 more weeks.

S1P3 receptor = S1P3 receptor (Homo sapiens, UniProt Q99500); conditions: due to its agonism of the S1P3 receptor; cited from earlier work
S1P3 receptor, sequence (Q99500 whole entry): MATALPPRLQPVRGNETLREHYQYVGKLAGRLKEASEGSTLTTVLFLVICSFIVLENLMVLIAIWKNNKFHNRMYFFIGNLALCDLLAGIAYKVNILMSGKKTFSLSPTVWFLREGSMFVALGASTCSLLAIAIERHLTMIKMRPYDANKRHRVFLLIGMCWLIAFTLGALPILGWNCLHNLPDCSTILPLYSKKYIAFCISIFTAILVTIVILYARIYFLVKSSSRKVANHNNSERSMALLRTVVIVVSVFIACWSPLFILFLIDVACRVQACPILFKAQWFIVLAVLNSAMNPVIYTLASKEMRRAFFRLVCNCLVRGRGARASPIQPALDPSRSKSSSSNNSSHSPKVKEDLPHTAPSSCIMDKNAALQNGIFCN

[2] = system: experimental autoimmune uveoretinitis; conditions: short-term high dose; cited from earlier work
mice = conditions: oral administration to mice; cited from earlier work
C57BL/6 mice = conditions: prophylactic oral administration, 1 mg/kg, three times a week; cited from earlier work
[3] = system: patients with multiple sclerosis; conditions: Phase II, relapsing-remitting multiple sclerosis; cited from earlier work

## N#Cc1cc(OC(F)(F)F)cc(-c2nc(-c3ccc4[nH]c5c(c4c3)CCC5CC(=O)O)no2)c1 (stereo not drawn) [2nd enantiomer of Compound 7, 2-(7-(5-(3-cyano-5-(trifluoromethoxy)phenyl)-1,2,4-oxadiazol-3-yl)-1,2,3,4-tetrahydrocyclopenta[b]indol-3-yl)acetic acid]
[1]
  delay of time of rejection of the skin allograft: exhibited activity in the mouse skin allograft assay
Female NOD/Ltj mice
  incidence of diabetes / promotion of normoglycemia: exhibited activity in the NOD mouse type I diabetes assay
Female Lewis rats
  mean ankle diameter: exhibited activity for reducing mean ankle diameter in the rat
Female C57BL/6 mice
  severity of disease symptoms in EAE: exhibited activity in the mouse EAE assay

## CCCCCCCCc1ccc(CCC(N)(CO)CO)cc1 [FTY720]
S1P3 receptor
  adverse event in clinical trials: transient asymptomatic bradycardia
[2]
  ocular infiltrates: rapidly reduced ocular infiltrates
mice
  VEGF-induced vascular permeability: potently blocked VEGF-induced vascular permeability
C57BL/6 mice
  development of EAMG: completely prevented the development of experimental autoimmune myasthenia gravis (EAMG)
[3]
  number of lesions detected by MRI and clinical disease activity: reduce the number of lesions detected by magnetic resonance imaging (MRI) and clinical disease activity
